Data set [1] has as its system V79 cells. The experiment in a line: Clonogenicity, killing of V79 cells using photodynamic therapy (Table 3). Type of data set: cell-based, Chinese hamster. Put shortly: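 V79 Chinese hamster lung fibroblasts were loaded with 0.5 or 1.0 μM phthalocyanine, then about 18 h later irradiated with increasing doses of 675 nm broad-band red light (tungsten-halogen lamp, 600 nm high-pass filter). Recorded value is the light dose killing 90% of cells, or, failing that, the maximum kill (% survival) and its dose.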

In data set [2] the test system is L5178Y-R (LY-R) cells. Briefly: Clonogenic survival of PDT-treated L5178Y-R cells (Tables 4 and 5, FIG. 3). In kind it is cell-based, mouse. To be noted: for viability at 0.5 µM: Mus musculus, read-out: normalized plating efficiency / percent survival, 0.5 μM. The protocol: Mouse lymphoma L5178y-R (hereinafter also referred to as "LY-R") cells were grown in suspension culture as described in Ramakrishnan N., Oleinick, N. L. Clay, M. E., Horng, M. F., Antunez, A. R., and Evans H. H., DNA lesions and DNA degradation in mouse lymphoma L5178Y cells after photodynamic treatment sensitized by chloroaluminum phthalocyanine. Photochem. Photobiol. 50, 373-378, 1989 and Agarwal, M. L., Clay, M. E., Harvey, E. J., Evans, H. H., Antunez, A. R., and Oleinick, N. L. Photodynamic therapy induces rapid cell death by apoptosis in L5178Y mouse lymphoma cells. Cancer Res., 51, 5993-5996, 1991.
The cells were used while in exponential growth. Stock solutions of either 0.5 or 1 mM of PcIV, PcXII, PcX, PcXVIII were prepared in dimethylformamide unless otherwise indicated and added to the 10 mL medium at a rate of 1 μL per mL. After allowing 18 hours for uptake of the phthalocyanine into the cells, the flasks containing the cultures were placed on a glass exposure tray above a 500-W tungsten-halogen lamp. The exposure tray was fitted with a 600-nm high-pass filter. Flasks were exposed to various fluences of red light (up to 30 kJ/m^2) at a fluence rate of approximately 74 W/m^2). After irradiation, the cells were collected by centrifugation.
For measurement of clonogenic cell survival, aliquots were plated in medium containing soft agar as described in Ramakrishnan N., Oleinick, N. L. Clay, M. E., Horng, M. F., Antunez, A. R., and Evans H. H., DNA lesions and DNA degradation in mouse lymphoma L5178Y cells after photodynamic treatment sensitized by chloroaluminum phthalocyanine. Photochem. Photobiol. 50, 373-378, 1989. The aliquots were plated in sufficient numbers to produce 50-200 colonies. The dishes were kept in an incubator at 37° C. in an atmosphere of 5% CO2 and 95% air for 10-14 days to allow viable cells to form colonies. Colonies were counted by eye. Controls treated with the phthalocyanine alone had plating efficiencies of ~90%. The plating efficiencies of the treated cells are normalized to the plating efficiencies of control cells in each experiment. For measurement of the induction of apoptosis, DNA was isolated from the treated and control cells 2 hours after photodynamic therapy, subjected to electrophoresis on 1.5% agarose, stained with ethidium bromide, and visualized by UV transillumination, as described in Agarwal et. al. The results are shown in Tables 4, 5 and 6 and in FIG. 3.
In Table 4 each phthalocyanine was present at 0.5 μM, and the normalized plating efficiencies are presented as mean and standard deviation at each fluence tested. […] This relative activity of these four phthalocyanines is the same as obtained from screening in V79 cells.
PcXII when present in the culture medium at 0.5 μM requires less light, that is the lowest fluence, to kill either 50% […] of the cells. PcIV is about 80% as active as PcXII, PcX is 44% as active as PcXII and PcXVIII is 22% as active as PcXII.

Data set [3] concerns RIF-1 tumors. Briefly: Histology and DNA fragmentation in PDT-treated tumors. Type of data set: in vivo, C3H/HeN mice.
Data set [4] can be described thus: Solubility.
For data set [5], the system named is V79 cells. Briefly: Uptake of additional phthalocyanines into V79 cells (Table 2). As to conditions: for Uptake into V79 cells: 18 hours.
Description: V79 cells Chinese hamster lung fibroblasts were cultured using the cell culture methods described above. […] When the filters were dry, the phthalocyanines were extracted into ethanol and the absorption determined at the peak wavelength, usually 668 nm.

“Also recorded” adds a separate entry of the source. Where two headings read alike, the source gives them in different places.

On to `CN(C)CCC[Si](C)(C)O[Si]1(O)n2c3c4ccccc4c2N=C2N=C(N=c4c5ccccc5c(n41)=NC1=NC(=N3)c3ccccc31)c1ccccc12` (stereo not drawn) [Compound IV, HOSiPcOsi(CH3)2)(CH2)3 N(CH3)2], for which the “LD 90” value in data set [1] (0.5 μM, 18 h, light dose killing 90% of cells) is listed as 4 kJ/m^2; in data set [2] (0.5 μM, fluence reducing survival to 10%) it was 2.15 kJ/m^2. In data set [1] (discussion of Table 3), the “photosensitizing activity, killing V79 cells (in words)” value is “most active at killing V79 cells”. In data set [2] (0.5 μM, from Table 5), the “activity relative to PcXII” value is listed as “about 80%”. In data set [2] (0.5 μM, fluence reducing survival to 50%), this molecule showed an LD50 of 1.38 kJ/m^2. Moreover, the “photosensitizer activity in LY-R cells (in words)” value in data set [2] (0.5 μM, listed as PcIV) is “active photosensitizers; also recorded: most active”. Besides, the viability at 0.5 µM in data set [2] (0 kJ/m^2) came out at 100%; in data set [2] (1 kJ/m^2), 80.9%; in data set [2] (2 kJ/m^2), 19.7%; in data set [2] (2.5 kJ/m^2) it was 0.82%; in data set [2] (3 kJ/m^2), 0.16%; in data set [2] (5 kJ/m^2), 0.014%. The “apoptotic bodies in the tumor” value in data set [3] (histological examination) is recorded as “presence of apoptotic bodies in the tumor”. The “DNA fragment sizes, multiples of” value in data set [3] (mouse, in vivo) is reported as 180-200 base pairs. The solubility in solvents result in data set [4] was “soluble in CH2 Cl2 and toluene”. The “uptake by V79 cells (in words)” value in data set [5] is given as “taken up particulary well”. The “Uptake into V79 cells” value is 0.7 ± 0.2 n Moles/10^6 cells in data set [5] (1 μM), 3.1 ± 0.3 n Moles/10^6 cells in data set [5] (2 μM) and 4.6 ± 2.9 n Moles/10^6 cells in data set [5] (4 μM). Besides, in data set [5] (average of all data), the “Uptake into V79 cells, composite value” is recorded as 1.1 n Moles/10^6 cells/μM. Further, the “Uptake (from Table 2)” value in data set [5] (repeated in Table 3) came to 1.1 n Moles/10^6 cells/μM.

The values above are taken from patent US5484778A, “Phthalocyanine photosensitizers for photodynamic therapy and methods for their use” (priority 1993, dated 1996).
